For 1 molecule, Kd results are on record in PMC4774501 (Biomolecules & Therapeutics, 2016).

This assay deals with T1, vitamin D receptor (VDR) (Homo sapiens, UniProt P11473).
T1 sequence (P11473 118-427): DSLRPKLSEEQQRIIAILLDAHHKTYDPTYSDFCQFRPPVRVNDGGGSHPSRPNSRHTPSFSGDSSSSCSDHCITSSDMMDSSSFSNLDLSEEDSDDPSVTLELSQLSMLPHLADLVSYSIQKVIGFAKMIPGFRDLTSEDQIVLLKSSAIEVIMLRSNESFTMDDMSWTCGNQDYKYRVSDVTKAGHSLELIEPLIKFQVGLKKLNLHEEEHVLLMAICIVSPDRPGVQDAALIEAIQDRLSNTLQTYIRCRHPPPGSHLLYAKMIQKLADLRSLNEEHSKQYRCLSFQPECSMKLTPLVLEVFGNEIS
Nature of the assay: intrinsic tryptophan fluorescence quenching titration. Type of assay: binding.

In general, Kd refers to the concentration at which binding is half-saturated. A low value points to higher affinity. Molecule `O=c1c(O)c(-c2ccc(O)c(O)c2)oc2cc(O)cc(O)c12` [quercetin] showed a Kd of 21.1 ± 4.31 µM.
